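96-well plates; 48 h exposure; 5 concentrations. Endpoints by linear interpolation between flanking doses. Not reached: highest tested concentration assigned. The concentration for 50% growth inhibition is given as GI50.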 Activity calls are given as the source filed them. No stated cut-off is given here; in the data, active = GI50 up to about 1.1 µM and inactive = higher.
Experiments:
Experiment in all cases: NCI anticancer screen, dose series, 48 h
786-0 = test system: 786-0
A498 = test system: A498
ACHN = test system: ACHN
CAKI-1 = test system: CAKI-1
CCRF-CEM = test system: CCRF-CEM
COLO 205 = test system: COLO 205
DLD-1 = test system: DLD-1
DMS-114 = test system: DMS-114
DMS-273 = test system: DMS-273
HCC 2998 = test system: HCC 2998
HCT-116 = test system: HCT-116
HL-60 = test system: HL-60
HOP-62 = test system: HOP-62
HOP-92 = test system: HOP-92
IGROV-1 = test system: IGROV-1
K562 = test system: K562
LXFL 529 = test system: LXFL 529
M14 = test system: M14
M19-MEL = test system: M19-MEL
MOLT-4 = test system: MOLT-4
Malme-3M = test system: Malme-3M
NCI-H226 = test system: NCI-H226
NCI-H23 = test system: NCI-H23
NCI-H460 = test system: NCI-H460
NCI-H522 = test system: NCI-H522
OVCAR-4 = test system: OVCAR-4
RPMI-8226 = test system: RPMI-8226
RXF 631 = test system: RXF 631
SF-268 = test system: SF-268
SF-539 = test system: SF-539
SK-MEL-28 = test system: SK-MEL-28
SK-MEL-2 = test system: SK-MEL-2
SK-OV-3 = test system: SK-OV-3
SN12C = test system: SN12C
SNB-75 = test system: SNB-75
SNB-78 = test system: SNB-78
SR = test system: SR
UACC-62 = test system: UACC-62
UO-31 = test system: UO-31
A549 = test system: A549
BT-549 = test system: BT-549
DU-145 = test system: DU-145
EKVX = test system: EKVX
HCT-15 = test system: HCT-15
HT-29 = test system: HT-29
KM-20L2 = test system: KM-20L2
KM12 = test system: KM12
LOX IMVI = test system: LOX IMVI
MCF7 = test system: MCF7
MDA-MB-231 = test system: MDA-MB-231
MDA-MB-435 = test system: MDA-MB-435
MDA-N = test system: MDA-N
NCI/ADR-RES = test system: NCI/ADR-RES
OVCAR-3 = test system: OVCAR-3
OVCAR-5 = test system: OVCAR-5
OVCAR-8 = test system: OVCAR-8
PC-3 = test system: PC-3
RXF 393 = test system: RXF 393
SF-295 = test system: SF-295
SK-MEL-5 = test system: SK-MEL-5
SNB-19 = test system: SNB-19
SW-620 = test system: SW-620
T47D = test system: T47D
TK-10 = test system: TK-10
U-251 = test system: U-251
UACC-257 = test system: UACC-257
XF498 = test system: XF498

COc1cc([C@H]2Oc3cc(O)c4c(=O)cc(-c5ccc(O)cc5)oc4c3O[C@@H]2CO)ccc1O
GI50 (786-0): 15.3 µM (inactive) | GI50 (A498): 16.8 µM (inactive) | GI50 (ACHN): 12.9 µM (inactive) | GI50 (CAKI-1): 15.1 µM (inactive) | GI50 (CCRF-CEM): 13.6 µM (inactive) | GI50 (COLO 205): 15.2 µM (inactive) | GI50 (DLD-1): 15.3 µM (inactive) | GI50 (DMS-114): 15.9 µM (inactive) | GI50 (DMS-273): 14.2 µM (inactive) | GI50 (HCC 2998): 15 µM (inactive) | GI50 (HCT-116): 13.5 µM (inactive) | GI50 (HL-60): 18.8 µM (inactive) | GI50 (HOP-62): 14.5 µM (inactive) | GI50 (HOP-92): 25.5 µM (inactive) | GI50 (IGROV-1): 19.7 µM (inactive) | GI50 (K562): 23.4 µM (inactive) | GI50 (LXFL 529): 15.1 µM (inactive) | GI50 (M14): 16.8 µM (inactive) | GI50 (M19-MEL): 17.7 µM (inactive) | GI50 (MOLT-4): 18.7 µM (inactive) | GI50 (Malme-3M): 18.8 µM (inactive) | GI50 (NCI-H226): 18.5 µM (inactive) | GI50 (NCI-H23): 14.6 µM (inactive) | GI50 (NCI-H460): 4.54 µM (inactive) | GI50 (NCI-H522): 4.76 µM (inactive) | GI50 (OVCAR-4): 20.1 µM (inactive) | GI50 (RPMI-8226): 16.1 µM (inactive) | GI50 (RXF 631): 10.6 µM (inactive) | GI50 (SF-268): 2.28 µM (inactive) | GI50 (SF-539): > 10 µM (inactive) | GI50 (SK-MEL-28): 14.5 µM (inactive) | GI50 (SK-MEL-2): 16.1 µM (inactive) | GI50 (SK-OV-3): 14.6 µM (inactive) | GI50 (SN12C): > 10 µM (inactive) | GI50 (SNB-75): 5.45 µM (inactive) | GI50 (SNB-78): 14.6 µM (inactive) | GI50 (SR): 15.3 µM (inactive) | GI50 (UACC-62): 11.1 µM (inactive) | GI50 (UO-31): 12.6 µM (inactive)

CC(=O)OC1=CC2(OC(C)=O)CC(C)(C)C1C1C(=O)C=CC(=O)C12 (centres undefined)
GI50 (786-0): > 50.7 µM (inactive) | GI50 (A498): 72.8 µM (inactive) | GI50 (A549): > 100 µM (inactive) | GI50 (ACHN): 20.1 µM (inactive) | GI50 (BT-549): 11.3 µM (inactive) | GI50 (CAKI-1): > 63.5 µM (inactive) | GI50 (CCRF-CEM): > 100 µM (inactive) | GI50 (COLO 205): > 42.5 µM (inactive) | GI50 (DLD-1): > 100 µM (inactive) | GI50 (DMS-114): > 100 µM (inactive) | GI50 (DMS-273): > 100 µM (inactive) | GI50 (DU-145): > 100 µM (inactive) | GI50 (EKVX): > 68.9 µM (inactive) | GI50 (HCC 2998): > 58.3 µM (inactive) | GI50 (HCT-116): > 51.3 µM (inactive) | GI50 (HCT-15): > 55.6 µM | GI50 (HL-60): > 100 µM (inactive) | GI50 (HOP-62): > 80.9 µM (inactive) | GI50 (HOP-92): 42.5 µM (inactive) | GI50 (HT-29): 19.8 µM (inactive) | GI50 (IGROV-1): > 50.7 µM (inactive) | GI50 (K562): 97.1 µM (inactive) | GI50 (KM-20L2): > 100 µM (inactive) | GI50 (KM12): > 100 µM (inactive) | GI50 (LOX IMVI): > 42.1 µM (inactive) | GI50 (LXFL 529): > 100 µM (inactive) | GI50 (M14): > 79.3 µM (inactive) | GI50 (M19-MEL): > 100 µM (inactive) | GI50 (MCF7): 32.7 µM (inactive) | GI50 (MDA-MB-231): 54 µM (inactive) | GI50 (MDA-MB-435): 22.9 µM (inactive) | GI50 (MDA-N): 31.1 µM (inactive) | GI50 (MOLT-4): > 63.8 µM (inactive) | GI50 (Malme-3M): 17.6 µM (inactive) | GI50 (NCI-H226): 29.4 µM (inactive) | GI50 (NCI-H23): > 73.1 µM (inactive) | GI50 (NCI-H460): > 62.8 µM (inactive) | GI50 (NCI-H522): > 36.5 µM (inactive) | GI50 (NCI/ADR-RES): 49.8 µM (inactive) | GI50 (OVCAR-3): > 66.7 µM (inactive) | GI50 (OVCAR-4): > 100 µM (inactive) | GI50 (OVCAR-5): > 100 µM (inactive) | GI50 (OVCAR-8): > 58.2 µM (inactive) | GI50 (PC-3): 57.8 µM (inactive) | GI50 (RPMI-8226): > 66.8 µM (inactive) | GI50 (RXF 393): 44.6 µM (inactive) | GI50 (RXF 631): > 100 µM (inactive) | GI50 (SF-268): > 63 µM (inactive) | GI50 (SF-295): > 75 µM (inactive) | GI50 (SF-539): > 47.1 µM (inactive) | GI50 (SK-MEL-28): 41.4 µM (inactive) | GI50 (SK-MEL-2): > 100 µM (inactive) | GI50 (SK-MEL-5): > 85.3 µM (inactive) | GI50 (SK-OV-3): > 100 µM (inactive) | GI50 (SN12C): > 56.6 µM (inactive) | GI50 (SNB-19): > 100 µM (inactive) | GI50 (SNB-75): > 64.6 µM (inactive) | GI50 (SNB-78): > 100 µM (inactive) | GI50 (SR): > 64.3 µM (inactive) | GI50 (SW-620): > 65 µM (inactive) | GI50 (T47D): 49.4 µM (inactive) | GI50 (TK-10): > 100 µM (inactive) | GI50 (U-251): > 66.2 µM (inactive) | GI50 (UACC-257): > 100 µM (inactive) | GI50 (UACC-62): 15.7 µM (inactive) | GI50 (UO-31): > 70 µM (inactive) | GI50 (XF498): > 100 µM (inactive)

CCC(=O)c1c(NOC2OC(COC(C)=O)C(OC(C)=O)C(OC(C)=O)C2OC(C)=O)nc(OC)n(C)c1=O (centres undefined)
GI50 (786-0): > 100 µM (inactive) | GI50 (A549): > 100 µM (inactive) | GI50 (ACHN): > 100 µM (inactive) | GI50 (CCRF-CEM): > 100 µM (inactive) | GI50 (COLO 205): > 100 µM (inactive) | GI50 (DLD-1): > 100 µM (inactive) | GI50 (DMS-114): > 100 µM (inactive) | GI50 (DMS-273): > 100 µM (inactive) | GI50 (EKVX): > 100 µM (inactive) | GI50 (HCC 2998): > 100 µM (inactive) | GI50 (HCT-116): > 100 µM (inactive) | GI50 (HCT-15): > 100 µM | GI50 (HOP-62): > 100 µM (inactive) | GI50 (HT-29): > 100 µM (inactive) | GI50 (IGROV-1): > 100 µM (inactive) | GI50 (K562): > 100 µM (inactive) | GI50 (KM-20L2): > 100 µM (inactive) | GI50 (KM12): > 100 µM (inactive) | GI50 (LOX IMVI): > 100 µM (inactive) | GI50 (LXFL 529): > 100 µM (inactive) | GI50 (M14): > 100 µM (inactive) | GI50 (M19-MEL): > 100 µM (inactive) | GI50 (MOLT-4): > 100 µM (inactive) | GI50 (NCI-H226): 50.1 µM (inactive) | GI50 (NCI-H23): > 100 µM (inactive) | GI50 (NCI-H460): > 100 µM (inactive) | GI50 (NCI-H522): > 100 µM (inactive) | GI50 (OVCAR-4): > 100 µM (inactive) | GI50 (OVCAR-5): > 100 µM (inactive) | GI50 (OVCAR-8): > 100 µM (inactive) | GI50 (RXF 393): > 100 µM (inactive) | GI50 (RXF 631): > 100 µM (inactive) | GI50 (SF-268): > 100 µM (inactive) | GI50 (SF-295): > 100 µM (inactive) | GI50 (SF-539): 69.2 µM (inactive) | GI50 (SK-MEL-28): > 100 µM (inactive) | GI50 (SK-MEL-2): > 100 µM (inactive) | GI50 (SK-MEL-5): > 100 µM (inactive) | GI50 (SN12C): > 100 µM (inactive) | GI50 (SNB-19): > 100 µM (inactive) | GI50 (SNB-75): > 100 µM (inactive) | GI50 (SNB-78): > 100 µM (inactive) | GI50 (SR): > 100 µM (inactive) | GI50 (SW-620): > 100 µM (inactive) | GI50 (TK-10): > 100 µM (inactive) | GI50 (U-251): > 100 µM (inactive) | GI50 (UACC-62): > 100 µM (inactive) | GI50 (XF498): > 100 µM (inactive)
